From patent publication US11478551B2, “Long-acting adrenomedullin derivative” (University of Miyazaki, priority 2015, dated 2022)
Marks after values point to notes of the source that are not given here.

Experiments:
[1] = Measurement over time of AM concentration in plasma after subcutaneous administration (RIA); type: in vivo; conditions: rat
Procedure: 1 day, 7 days and 10 days after the start of the administration, 50 mg of pentobarbital was intraperitoneally administered, and 300 μL of blood was collected each time from the tail vain under anesthesia. Immediately, 300 μg of EDTA-2Na and […] of aprotinin were added to the obtained blood sample, and the mixture was centrifuged under conditions involving 10 minutes and 3000 rpm to obtain plasma. The AM concentration in the plasma of each sample was measured by radioimmunoassay (RIA) (Kitamura K, Ichiki Y, Tanaka M et al., Immunoreactive adrenomedullin in human plasma. FEBS Lett., vol. 341, p. 288-90, 1994).
The compound (37) prepared in experiment III-1 was subcutaneously administered in a single dose of 30 nmol/kg to each rat, and time-dependent change in the concentration in blood of the adrenomedullin derivative was observed. The compound (37) dissolved in physiological saline was subcutaneously administered to each 7- to 8-week-old male Wistar rat (approximately 250 g). 1 day, 2 days, 4 days, 7 days and 9 days after the start of the administration, 50 mg of pentobarbital was intraperitoneally administered, and 300 μL of blood was collected each time from the tail vain under anesthesia. Immediately, 300 μg of EDTA-2Na and […] of aprotinin were added to the obtained blood sample, and the mixture was centrifuged under conditions involving 10 minutes and 3000 rpm to obtain plasma. The AM concentration in the plasma of each sample was measured by RIA.

Wistar rat = test: Blood pressure-lowering effect, single intravenous dose in rat under anesthesia; type: in vivo; conditions: 1 nmol/kg, single dose into the vein
Procedure: Each compound prepared in experiments I-1 and II-1 or full-length AM was administered in a single dose of 1 nmol/kg into the vein of each rat under anesthesia, and change in the blood pressure of the rat was observed. Each 11 to 14-week-old male Wistar rat was anesthetized by the inhalation of isoflurane. After tracheotomy, inhalational anesthesia was controlled at an isoflurane concentration of 1.5 to 2.5% and a flow rate of 0.6 to 0.8 L/min. The right jugular vein was isolated from the rat, and a catheter tube corresponding to 26 G was inserted thereto. Next, the left carotid artery was isolated from the rat thus treated, and a catheter tube corresponding to 23 G was inserted thereto. From the catheter tube of the right jugular vein, a physiological saline-heparin solution (physiological saline: 100 mL; heparin: 1000 units) was infused at 2.4 mL/hr. […] The catheter inserted in the carotid artery was connected to a pressure transducer. […] In the diagram, the ordinate depicts a difference obtained by subtracting the average blood pressure before the administration of each drug from the average blood pressure at the time of the administration of each drug.

AM receptor = biological target: T1, AM receptor (Homo sapiens, UniProt O60895+Q16602); test: Intracellular cAMP concentration-increasing effect in HEK293 cell line caused to express an AM receptor; type: cell-based; conditions: 10^−8 mol/L, 15 minutes, 0.5 mM IBMX; percentage with respect to h.AM (1-52)-Gly;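 also: cAMP inside confluent receptor-expressing cells quantified by ELISA after 15 min exposure to each peptide at 10^−8 mol/L alongside 0.5 mM IBMX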
T1 construct: expressed in transfected cells; host or cells: HEK293 cell line
T1 sequence (Q16602 23-461): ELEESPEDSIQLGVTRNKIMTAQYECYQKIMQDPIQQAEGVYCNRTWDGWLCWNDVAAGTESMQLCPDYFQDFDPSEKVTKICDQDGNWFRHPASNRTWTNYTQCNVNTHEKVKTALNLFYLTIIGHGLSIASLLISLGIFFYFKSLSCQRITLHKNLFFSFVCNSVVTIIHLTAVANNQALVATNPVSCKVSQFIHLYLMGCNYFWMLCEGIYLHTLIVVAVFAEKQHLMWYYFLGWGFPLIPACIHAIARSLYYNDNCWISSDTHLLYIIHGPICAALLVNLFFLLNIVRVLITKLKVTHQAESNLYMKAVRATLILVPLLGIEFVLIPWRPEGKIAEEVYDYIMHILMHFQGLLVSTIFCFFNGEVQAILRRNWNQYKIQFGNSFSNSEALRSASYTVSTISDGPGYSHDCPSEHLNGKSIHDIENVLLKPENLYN
T1 sequence (O60895 43-175): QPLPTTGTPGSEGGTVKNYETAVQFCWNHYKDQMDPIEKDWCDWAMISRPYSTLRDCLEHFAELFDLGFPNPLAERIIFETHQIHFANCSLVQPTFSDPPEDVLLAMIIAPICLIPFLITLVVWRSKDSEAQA

[2] = test system: spontaneously hypertensive rat (SHR); test: Effect of suppressing increase in blood pressure in spontaneously hypertensive rat (SHR)-(2); type: in vivo; conditions: 30 nmol/kg subcutaneous single dose, 4 days and 9 days after administration
Procedure: The compound (37) prepared in experiment III-1 was subcutaneously administered in a single dose of 30 nmol/kg to each SHR, and the blood pressure increase-suppressing effect of the adrenomedullin derivative was observed. The compound (37) was administered in a form dissolved in physiological saline to each 8-week-old male SHR (approximately 200 g). […] of physiological saline was subcutaneously administered in a single dose to each male SHR (approximately 200 g) in the same condition as above in a control group. The blood pressure was measured over time (1 day before and 4 days and 9 days after the administration of the compound (37) or physiological saline). The values of change in the blood pressure obtained 4 days and 9 days after the administration of the compound (37) or physiological saline with respect to the average systolic blood pressure on the day before the administration are shown in FIG. 10.

CC[C@H](C)[C@H](NC(=O)[C@H](CCC(N)=O)NC(=O)[C@H](Cc1c[nH]cn1)NC(=O)[C@H](C)NC(=O)[C@H](CC(C)C)NC(=O)[C@H](CCCCN)NC(=O)[C@H](CCC(N)=O)NC(=O)[C@@H](NC(=O)[C@@H](NC(=O)[C@@H]1CSSC[C@H](NC(=O)CNC(=O)[C@H](Cc2ccccc2)NC(=O)[C@H](CO)NC(=O)[C@H](CCCNC(=N)N)NC(=O)[C@H](CC(C)C)NC(=O)CNC(=O)[C@H](CCC(N)=O)NC(=O)[C@H](Cc2ccccc2)NC(=O)[C@H](CC(N)=O)NC(=O)[C@H](CC(N)=O)NC(=O)[C@H](CCSC)NC(=O)[C@H](CO)NC(=O)[C@H](CCC(N)=O)NC(=O)[C@H](CCCNC(=N)N)NC(=O)[C@@H](N)Cc2ccc(O)cc2)C(=O)N[C@@H](CCCNC(=N)N)C(=O)N[C@@H](Cc2ccccc2)C(=O)NCC(=O)N[C@@H]([C@@H](C)O)C(=O)N1)[C@@H](C)O)C(C)C)C(=O)N[C@@H](Cc1ccc(O)cc1)C(=O)N[C@@H](CCC(N)=O)C(=O)N[C@@H](Cc1ccccc1)C(=O)N[C@H](C(=O)N[C@@H](CC(=O)O)C(=O)N[C@@H](CCCCN)C(=O)N[C@@H](CC(=O)O)C(=O)N[C@@H](CCCCN)C(=O)N[C@@H](CC(=O)O)C(=O)N[C@@H](CC(N)=O)C(=O)N[C@H](C(=O)N[C@@H](C)C(=O)N1CCC[C@H]1C(=O)N[C@@H](CCCNC(=N)N)C(=O)N[C@@H](CO)C(=O)N[C@@H](CCCCN)C(=O)N[C@H](C(=O)N[C@@H](CO)C(=O)N1CCC[C@H]1C(=O)N[C@@H](CCC(N)=O)C(=O)NCC(=O)N[C@@H](Cc1ccc(O)cc1)C(N)=O)[C@@H](C)CC)C(C)C)[C@@H](C)O [h.AM (1-52), reference compound]
level at time molar at 24 h ([1]; 10 nmol/kg subcutaneous single dose, 7 days later): 0 nM
level at time molar at 24 h ([1]; 10 nmol/kg subcutaneous single dose, 10 days later): 0 nM
level at time molar at 24 h ([1]; male, Wistar, plasma, sc, 10 nmol/kg subcutaneous single dose, 1 day later): 0.0067 nM
rapidly decreased blood pressure immediately after the administration (Wistar rat): rapidly decreased blood pressure was observed

GL-2-branched CH3O-PEG (60k)-CH2-^αNH-(h.AM (1-52)-Gly) [Compound (37)]
Intracellular cAMP concentration-increasing effect (%) (AM receptor): 91****^) %
level at time molar at 24 h ([1]; 30 nmol/kg subcutaneous single dose, 1 day later): ≥ 34 nM
level at time molar at 24 h ([1]; 30 nmol/kg subcutaneous single dose, 7 days later): ≥ 1.6 nM
level at time molar at 24 h ([1]; 30 nmol/kg subcutaneous single dose, 9 days later): ≥ 0.11 nM
increase in the blood pressure compared to the control group [2]: suppressed
